Laboratory results reported in ChEMBL document CHEMBL5528028, “Discovery of benzopyridone cyanoacetates as new type of potential broad-spectrum antibacterial candidates” (Eur J Med Chem, 2024).
In brackets after ≈: the same amount, converted by molar mass.

Tests used:
Format in all cases: functional
Staphylococcus aureus [1] = experiment: Antibacterial activity against methicillin-resistant Staphylococcus aureus assessed growth inhibition by micro broth dilution method
Staphylococcus aureus [2] = experiment: Antibacterial activity against Staphylococcus aureus assessed growth inhibition by micro broth dilution method
Staphylococcus aureus [3] = experiment: Antibacterial activity against Staphylococcus aureus ATCC 25923 assessed growth inhibition by micro broth dilution method
Staphylococcus aureus [4] = experiment: Antibacterial activity against Staphylococcus aureus ATCC 29213 assessed growth inhibition by micro broth dilution method
Enterococcus faecalis = experiment: Antibacterial activity against Enterococcus faecalis assessed growth inhibition by micro broth dilution method
Klebsiella pneumoniae = experiment: Antibacterial activity against Klebsiella pneumonia assessed growth inhibition by micro broth dilution method
Escherichia coli [5] = experiment: Antibacterial activity against Escherichia coli assessed growth inhibition by micro broth dilution method
Escherichia coli [6] = experiment: Antibacterial activity against Escherichia coli ATCC 25922 assessed growth inhibition by micro broth dilution method
Pseudomonas aeruginosa [7] = experiment: Antibacterial activity against Pseudomonas aeruginosa assessed growth inhibition by micro broth dilution method
Pseudomonas aeruginosa [8] = experiment: Antibacterial activity against Pseudomonas aeruginosa ATCC 27853 assessed growth inhibition by micro broth dilution method
Acinetobacter baumannii = experiment: Antibacterial activity against Acinetobacter baumannii assessed growth inhibition by micro broth dilution method

Compound | MIC (Staphylococcus aureus [1]) | MIC (Staphylococcus aureus [2]) | MIC (Staphylococcus aureus [3]) | MIC (Staphylococcus aureus [4]) | MIC (Enterococcus faecalis) | MIC (Klebsiella pneumoniae) | MIC (Escherichia coli [5]) | MIC (Escherichia coli [6]) | MIC (Pseudomonas aeruginosa [7]) | MIC (Pseudomonas aeruginosa [8]) | MIC (Acinetobacter baumannii)
CCOC(=O)c1cn(Cc2cccc(Cl)c2)c2cc([C-](C#N)C(=O)OCC)c(F)cc2c1=O.[Na+] (stereo unspecified) | 64 µg/mL | 128 µg/mL | 1 µg/mL | 2 µg/mL | 1 µg/mL | 4 µg/mL | 0.5 µg/mL | 2 µg/mL | 16 µg/mL | 2 µg/mL | 64 µg/mL
CCCCCn1cc(C(=O)OCC)c(=O)c2cc(F)c([C-](C#N)C(=O)OCC)cc21.[Na+] (stereo unspecified) | 32 µg/mL | 32 µg/mL | 1 µg/mL | 4 µg/mL | 4 µg/mL | 4 µg/mL | 4 µg/mL | 1 µg/mL | 4 µg/mL | 4 µg/mL | 4 µg/mL
CCOC(=O)c1cn(CC)c2c(F)c([C-](C#N)C(=O)OCC)c(F)cc2c1=O.[Na+] (stereo unspecified) | 32 µg/mL | 16 µg/mL | 16 µg/mL | 16 µg/mL | 32 µg/mL | 16 µg/mL | 64 µg/mL | 1 µg/mL | 64 µg/mL | 16 µg/mL | 32 µg/mL
CCOC(=O)C(C#N)c1cc2c(cc1F)c(=O)c(C(=O)O)cn2Cc1ccc(Cl)cc1Cl (stereo unspecified) | 2 µg/mL (≈ 4.19 µM) | 1 µg/mL (≈ 2.1 µM) | 1 µg/mL (≈ 2.1 µM) | 2 µg/mL (≈ 4.19 µM) | 8 µg/mL (≈ 16.8 µM) | 0.25 µg/mL (≈ 0.524 µM) | 16 µg/mL (≈ 33.5 µM) | 0.5 µg/mL (≈ 1.05 µM) | 4 µg/mL (≈ 8.38 µM) | 2 µg/mL (≈ 4.19 µM) | 1 µg/mL (≈ 2.1 µM)
CCOC(=O)c1cn(CC(N)=O)c2cc(F)c(F)cc2c1=O | 256 µg/mL (≈ 825 µM) | 128 µg/mL (≈ 413 µM) | 256 µg/mL (≈ 825 µM) | 256 µg/mL (≈ 825 µM) | 256 µg/mL (≈ 825 µM) | 256 µg/mL (≈ 825 µM) | 8 µg/mL (≈ 25.8 µM) | 32 µg/mL (≈ 103 µM) | 64 µg/mL (≈ 206 µM) | 64 µg/mL (≈ 206 µM) | 16 µg/mL (≈ 51.6 µM)
CCOC(=O)c1cn(CC2CCCC2)c2cc([C-](C#N)C(=O)OCC)c(F)cc2c1=O.[Na+] (stereo unspecified) | 16 µg/mL | 16 µg/mL | 8 µg/mL | 4 µg/mL | 2 µg/mL | 8 µg/mL | 128 µg/mL | 2 µg/mL | 8 µg/mL | 8 µg/mL | 4 µg/mL
CCOC(=O)c1cn(Cc2ccc(F)cc2F)c2cc(C(C#N)C(=O)OCC)c(F)cc2c1=O (stereo unspecified) | 32 µg/mL (≈ 67.7 µM) | 8 µg/mL (≈ 16.9 µM) | 4 µg/mL (≈ 8.47 µM) | 4 µg/mL (≈ 8.47 µM) | 16 µg/mL (≈ 33.9 µM) | 4 µg/mL (≈ 8.47 µM) | 16 µg/mL (≈ 33.9 µM) | 16 µg/mL (≈ 33.9 µM) | 2 µg/mL (≈ 4.23 µM) | 4 µg/mL (≈ 8.47 µM) | 32 µg/mL (≈ 67.7 µM)
NC1CCN(c2c(F)cc3c(=O)c(C(=O)O)cn(C4CC4)c3c2Cl)C1 (stereo unspecified) [CLINAFLOXACIN] | 1 µg/mL (≈ 2.73 µM) | 0.5 µg/mL (≈ 1.37 µM) | 0.5 µg/mL (≈ 1.37 µM) | 0.5 µg/mL (≈ 1.37 µM) | 4 µg/mL (≈ 10.9 µM) | 0.5 µg/mL (≈ 1.37 µM) | 0.25 µg/mL (≈ 0.683 µM) | 0.25 µg/mL (≈ 0.683 µM) | 0.5 µg/mL (≈ 1.37 µM) | 0.5 µg/mL (≈ 1.37 µM) | 0.5 µg/mL (≈ 1.37 µM)
CCOC(=O)c1cn(Cc2ccccc2)c2cc(C(C#N)C(=O)OCC)c(F)cc2c1=O (stereo unspecified) | 32 µg/mL (≈ 73.3 µM) | 8 µg/mL (≈ 18.3 µM) | 2 µg/mL (≈ 4.58 µM) | 2 µg/mL (≈ 4.58 µM) | 16 µg/mL (≈ 36.7 µM) | 2 µg/mL (≈ 4.58 µM) | 32 µg/mL (≈ 73.3 µM) | 16 µg/mL (≈ 36.7 µM) | 0.5 µg/mL (≈ 1.15 µM) | 2 µg/mL (≈ 4.58 µM) | 8 µg/mL (≈ 18.3 µM)
CCOC(=O)c1cn(CC2CCC2)c2cc(F)c(F)cc2c1=O | 256 µg/mL (≈ 797 µM) | 64 µg/mL (≈ 199 µM) | 16 µg/mL (≈ 49.8 µM) | 256 µg/mL (≈ 797 µM) | 128 µg/mL (≈ 398 µM) | 32 µg/mL (≈ 99.6 µM) | 16 µg/mL (≈ 49.8 µM) | 128 µg/mL (≈ 398 µM) | 32 µg/mL (≈ 99.6 µM) | 256 µg/mL (≈ 797 µM) | 128 µg/mL (≈ 398 µM)
CCOC(=O)C(C#N)c1cc2c(cc1F)c(=O)c(C(=O)O)cn2Cc1ccc(Cl)c(Cl)c1 (stereo unspecified) | 32 µg/mL (≈ 67 µM) | 64 µg/mL (≈ 134 µM) | 32 µg/mL (≈ 67 µM) | 64 µg/mL (≈ 134 µM) | 128 µg/mL (≈ 268 µM) | 4 µg/mL (≈ 8.38 µM) | 128 µg/mL (≈ 268 µM) | 0.5 µg/mL (≈ 1.05 µM) | 16 µg/mL (≈ 33.5 µM) | 4 µg/mL (≈ 8.38 µM) | 16 µg/mL (≈ 33.5 µM)
CCOC(=O)c1cn(Cc2cccc(Cl)c2)c2cc(F)c(F)cc2c1=O | 256 µg/mL (≈ 678 µM) | 64 µg/mL (≈ 169 µM) | 64 µg/mL (≈ 169 µM) | 128 µg/mL (≈ 339 µM) | 2 µg/mL (≈ 5.29 µM) | 32 µg/mL (≈ 84.7 µM) | 1 µg/mL (≈ 2.65 µM) | 64 µg/mL (≈ 169 µM) | 256 µg/mL (≈ 678 µM) | 32 µg/mL (≈ 84.7 µM) | 4 µg/mL (≈ 10.6 µM)
CCOC(=O)c1cn(Cc2ccc(F)cc2F)c2cc([C-](C#N)C(=O)OCC)c(F)cc2c1=O.[Na+] (stereo unspecified) | 64 µg/mL | 128 µg/mL | 0.5 µg/mL | 4 µg/mL | 8 µg/mL | 4 µg/mL | 1 µg/mL | 2 µg/mL | 64 µg/mL | 2 µg/mL | 32 µg/mL
CCCCn1cc(C(=O)OCC)c(=O)c2cc(F)c(F)cc21 | 256 µg/mL (≈ 828 µM) | 32 µg/mL (≈ 103 µM) | 128 µg/mL (≈ 414 µM) | 128 µg/mL (≈ 414 µM) | 64 µg/mL (≈ 207 µM) | 64 µg/mL (≈ 207 µM) | 16 µg/mL (≈ 51.7 µM) | 128 µg/mL (≈ 414 µM) | 64 µg/mL (≈ 207 µM) | 256 µg/mL (≈ 828 µM) | 128 µg/mL (≈ 414 µM)
CCOC(=O)c1cn(Cc2ccc([N+](=O)[O-])cc2)c2cc(C(C#N)C(=O)OCC)c(F)cc2c1=O.[Na+] (stereo unspecified) | 256 µg/mL | 128 µg/mL | 1 µg/mL | 64 µg/mL | 32 µg/mL | 128 µg/mL | 0.5 µg/mL | 128 µg/mL | 128 µg/mL | 64 µg/mL | 128 µg/mL
CCOC(=O)c1cn(C2CC2)c2cc(F)c(F)cc2c1=O | 256 µg/mL (≈ 873 µM) | 64 µg/mL (≈ 218 µM) | 16 µg/mL (≈ 54.6 µM) | 128 µg/mL (≈ 436 µM) | 128 µg/mL (≈ 436 µM) | 64 µg/mL (≈ 218 µM) | 16 µg/mL (≈ 54.6 µM) | 64 µg/mL (≈ 218 µM) | 32 µg/mL (≈ 109 µM) | 256 µg/mL (≈ 873 µM) | 256 µg/mL (≈ 873 µM)
CCOC(=O)c1cn(CC2CC2)c2cc([C-](C#N)C(=O)OCC)c(F)cc2c1=O.[Na+] (stereo unspecified) | 64 µg/mL | 64 µg/mL | 4 µg/mL | 16 µg/mL | 64 µg/mL | 16 µg/mL | 16 µg/mL | 4 µg/mL | 16 µg/mL | 8 µg/mL | 16 µg/mL
CCOC(=O)c1cn(CCN2CCOCC2)c2cc(F)c(F)cc2c1=O | 256 µg/mL (≈ 699 µM) | 64 µg/mL (≈ 175 µM) | 256 µg/mL (≈ 699 µM) | 256 µg/mL (≈ 699 µM) | 128 µg/mL (≈ 349 µM) | 256 µg/mL (≈ 699 µM) | 2 µg/mL (≈ 5.46 µM) | 128 µg/mL (≈ 349 µM) | 128 µg/mL (≈ 349 µM) | 128 µg/mL (≈ 349 µM) | 2 µg/mL (≈ 5.46 µM)
CCOC(=O)c1cn(C)c2cc(F)c(F)cc2c1=O | 256 µg/mL (≈ 958 µM) | 128 µg/mL (≈ 479 µM) | 256 µg/mL (≈ 958 µM) | 128 µg/mL (≈ 479 µM) | 128 µg/mL (≈ 479 µM) | 64 µg/mL (≈ 239 µM) | 16 µg/mL (≈ 59.9 µM) | 128 µg/mL (≈ 479 µM) | 64 µg/mL (≈ 239 µM) | 256 µg/mL (≈ 958 µM) | 256 µg/mL (≈ 958 µM)
CCOC(=O)c1cn(C)c2cc([C-](C#N)C(=O)OCC)c(F)cc2c1=O.[Na+] (stereo unspecified) | 64 µg/mL | 128 µg/mL | 1 µg/mL | 64 µg/mL | 32 µg/mL | 32 µg/mL | 32 µg/mL | 16 µg/mL | 32 µg/mL | 32 µg/mL | 32 µg/mL
CCOC(=O)c1cn(Cc2ccc(C)cc2)c2cc([C-](C#N)C(=O)OCC)c(F)cc2c1=O.[Na+] (stereo unspecified) | 64 µg/mL | 32 µg/mL | 0.5 µg/mL | 0.5 µg/mL | 16 µg/mL | 2 µg/mL | 1 µg/mL | 1 µg/mL | 8 µg/mL | 1 µg/mL | 2 µg/mL
